pIC50: −log10 of the molar value.

The target in one experiment is T1, Dual specificity protein phosphatase 10 (Homo sapiens, UniProt Q9Y6W6).
T1 sequence (Q9Y6W6 whole entry): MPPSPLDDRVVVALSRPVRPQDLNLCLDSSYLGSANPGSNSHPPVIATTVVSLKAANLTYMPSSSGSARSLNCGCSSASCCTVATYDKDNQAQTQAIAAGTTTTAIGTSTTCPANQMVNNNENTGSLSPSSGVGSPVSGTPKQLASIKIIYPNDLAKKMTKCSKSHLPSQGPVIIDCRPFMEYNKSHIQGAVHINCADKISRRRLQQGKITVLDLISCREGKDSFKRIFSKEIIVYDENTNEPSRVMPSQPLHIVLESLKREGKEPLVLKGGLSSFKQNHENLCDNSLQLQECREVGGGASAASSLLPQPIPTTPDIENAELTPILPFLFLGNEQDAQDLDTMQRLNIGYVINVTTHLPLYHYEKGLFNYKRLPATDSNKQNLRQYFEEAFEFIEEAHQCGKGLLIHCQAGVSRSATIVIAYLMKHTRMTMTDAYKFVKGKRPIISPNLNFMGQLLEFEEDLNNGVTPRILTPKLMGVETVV
Nature of the experiment: Inhibition of MKP5 catalytic domain (unknown origin) expressed in Escherichia coli BL21 (DE3) cells assessed as p38alpha MAPK phosphopeptide dephosphorylation using phosphopeptide as substrate incubated for 15 mins followed by substrate addition by malachite green dye based analysis.
In the case of `CCc1csc2c1-c1nc(SCC(=O)C(C)(C)C)ncc1CC2`, the pIC50 was 5.30. The same measure, in the same setting: the figure for `Cc1ccc2c(c1)-c1nc(SCC(=O)C(C)(C)C)ncc1CC2` is 5.12; for `CC(C)(C)C(=O)CSc1nccc(-c2ccccc2)n1` it is 4.57. Same read-out and setting: under `CC(C)(C)C(=O)CSc1ncc2c(n1)-c1ccsc1CC2` stands 5.15; under `CC(C)(C)C(=O)CSc1ncc2c(n1)-c1cc(Cl)ccc1CC2`, 5.40.

For `CC(C)(C)C(=O)CSc1ncc2c(n1)-c1cccnc1CC2`, the pIC50 was 4.12. The same measure, in the same setting: under `CC(C)(C)C(=O)CSc1nccc(-c2cccnc2)n1` stands 4.00; under `CCCc1csc2c1-c1nc(SCC(=O)C(C)(C)C)ncc1CC2`, 4.96.

As to `CC(=O)N1Cc2cnc(SCC(=O)C(C)(C)C)nc2-c2ccccc21`, the pIC50 is 3.82.

As for `CC(C)(C)C(=O)CSc1ncc2cnc3ccccc3c2n1`, the pIC50 is 4.23. For the compound `CSc1scc2c1-c1nc(SCC(=O)C(C)(C)C)ncc1CC2`, the pIC50 was 5.55. Same read-out and setting: under `CCN(C)C(=O)CSc1ncc2c(n1)-c1c(csc1SC)CC2` stands 4.09; under `CC(C)(C)C(=O)CSc1ncc2c(n1)-c1ccccc1CC2`, 5.21.

The target of another experiment is T1, Dual specificity protein phosphatase 10. Nature of the experiment: Inhibition of human MKP5 catalytic domain (320 to 467 residues) expressed in Escherichia coli BL21 (DE3) cells by MST assay.
For `CSc1scc2c1-c1nc(SCC(=O)C(C)(C)C)ncc1CC2`, the pIC50 was 5.42.

One may read the pIC50 as the IC50 on a negative log10 scale, so that one unit is a factor of ten.

The record behind these values is ChEMBL document CHEMBL5331053, “Defining the structure-activity relationship for a novel class of allosteric MKP5 inhibitors” (Eur J Med Chem, 2022).
